Assay results reported in patent publication US8163901B2, “Amide derivatives as ion-channel ligands and pharmaceutical compositions and methods of using the same” (Evotec AG, priority 2008, dated 2012).

Assays:
hVR1 [1] = biological target: T1, hVR1 (Homo sapiens, UniProt Q8NER1); test: Calcium uptake assay (FLIPR), inhibition of capsaicin-induced calcium influx; format: cell-based
T1 construct: R710-07 (T-REx host cell line); host or cells: T-REx System cell line, called 'human keratinocyte cell line' and 'HEK 293 cells'
T1 sequence (Q8NER1 whole entry): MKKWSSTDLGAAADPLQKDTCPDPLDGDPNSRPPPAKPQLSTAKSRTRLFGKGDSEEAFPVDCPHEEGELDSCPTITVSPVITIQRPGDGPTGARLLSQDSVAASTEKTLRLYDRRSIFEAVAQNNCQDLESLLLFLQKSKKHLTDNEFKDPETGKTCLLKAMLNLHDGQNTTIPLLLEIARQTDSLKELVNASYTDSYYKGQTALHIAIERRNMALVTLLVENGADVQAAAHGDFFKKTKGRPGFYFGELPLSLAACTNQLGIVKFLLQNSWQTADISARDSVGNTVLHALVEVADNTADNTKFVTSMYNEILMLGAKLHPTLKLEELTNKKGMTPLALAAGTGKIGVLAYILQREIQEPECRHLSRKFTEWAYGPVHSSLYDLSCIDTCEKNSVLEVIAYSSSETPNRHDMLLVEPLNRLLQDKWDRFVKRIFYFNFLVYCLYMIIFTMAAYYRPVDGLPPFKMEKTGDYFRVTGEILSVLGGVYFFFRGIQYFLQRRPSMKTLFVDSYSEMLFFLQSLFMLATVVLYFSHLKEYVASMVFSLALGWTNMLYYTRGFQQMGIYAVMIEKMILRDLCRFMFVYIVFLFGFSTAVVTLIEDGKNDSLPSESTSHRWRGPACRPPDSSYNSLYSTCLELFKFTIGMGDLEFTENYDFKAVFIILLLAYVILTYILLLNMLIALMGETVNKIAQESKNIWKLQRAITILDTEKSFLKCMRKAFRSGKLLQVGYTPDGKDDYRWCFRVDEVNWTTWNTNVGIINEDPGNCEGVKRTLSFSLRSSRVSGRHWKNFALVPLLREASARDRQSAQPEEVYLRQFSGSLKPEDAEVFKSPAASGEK
Description: Functional activity of compounds against the VR1 receptor was determined by measuring changes in intracellular calcium in HEK 293 cells expressing hVR1. Compounds were examined for their ability to inhibit agonist-induced calcium influx. Relative levels of [Ca^2+] were monitored in a 96-well format using a calcium-sensitive fluorescence dye and a FLIPR TETRA, Molecular Devices.
Cells that express high levels of VR1 were obtained by generation of a cell line from human keratinocytes with heterologous expression of VR1 under control of an inducible promoter. Specifically, cells expressing human VR1 under the control of the human cytomegalovirus immediate-early (CMV) promoter and two tetracycline operator 2 (TetO2) sites were made using the T-REx System (Invitrogen, Carlsbad, Calif., USA). Details and methods concerning this system are published (Hum. Gene Ther. 9, pp. 1939-1950, 1998; Annu. Rev. Microbiol. 48, pp. 345-369, 1994; Mol. Biol. 169, pp. 707-'721, 1983). Human VR1 was subcloned into the T-REx System pcDNA5/TO vector (Invitrogen Cat# V1033-20) which was transfected into the T-REx System human keratinocyte cell line (Invitrogen Cat# R710-07) from which a stable cell line was established which expresses VR1 after induction by exposure to tetracycline or doxycycline (Hum. Gene Ther. 9, pp. 1939-1950, 1998; instructions that come with purchase of products noted above). Cells were maintained in a CO2 incubator (5% CO2) at 37° C. in culture medium containing DMEM with phenol red (Mediatech Cat #: 15-017-CV) supplemented with 10% heat-inactivated Fetal Bovine Serum, 5% Penicillin-streptomycin (Mediatech Cat #: 30-002-CI), 5% Glutamax® (L-Alanyl-L-Glutamine, Mediatech Cat #: 25-015-CI), 200 μg/ml hygromycin (Mediatech #:30-240-CR), 0.5 μg/ml blasticidin (Invitrogen #46-1120)).
For assay preparation, cells expressing human VR1 as described above were plated in 96-well plates (Becton Dickinson [BD] poly-D-lysine coated 96-well plates, cat #356692) at 55,000 cells per well in culture media (described above) that also contained 1 ug/ml doxycycline. Plated cells were then placed in an incubator (5% CO2) and incubated for 20-26 hours at 37° C., until the cells had grown to near confluency. Media was then aspirated from cells and 50 uL of dye-containing buffer (from Molecular Devices FLIPR Calcium 4 Assay kit, cat# R8141) was added to each well. Cells were then left in the dark at room temperature for 1.5-2 hours. Cell plates were then placed in the FLIPR TETRA (Molecular Devices, CA, USA). Test compounds and agonists were added to wells using the liquid handling capability of the FLIPR TETRA. Calcium responses of the cells were monitored by fluorescence readout of dye signal. Test compounds in saline (130 mM NaCl, 17 g/L sucrose, 1.8 g/L glucose, 8.8 mM HEPES, 3 mM KCl, 0.60 mM MgCl, 1.0 mM CaCl2; adjust to pH 7.4 using NaOH; 0.03% BSA added on the day of the experiment), or vehicle control in saline, were pre-incubated at the desired final concentrations in the dark at room temperature for 2 or 30 minutes with cells already containing the above mentioned dye buffer (dye solution was diluted 1:1 in culture wells with saline containing 2× the final concentration of test compound). […] Another agonist was protons via a low pH solution (saline solution described above plus 10 mM citric acid buffered to pH 5.7 with HCl instead of buffering to a neutral pH with NaOH as done for normal saline). Compounds were tested at various concentration ranges, depending upon potency of compound. After the 2 minute or 30 minute compound pre-treatment, treatment solution was then added to cells by adding a volume of treatment solution equal to the pretreatment solution already on the cells.

hVR1 [2] = biological target: T1, hVR1; test: Determination of pA2 values against capsaicin stimulation (Ca2+ imaging, Schild analysis); format: cell-based
Description: Changes in the fluorescence signal (λex=470-495 nm, λem=515-575 nm) are monitored throughout the experiment before agonist addition and for at least 2 min after agonist addition (enough time for the fluorescence response to reach and then decline from the absolute maximum, agonist-induced signal attained). For each well, final relative fluorescence units (RFUs) are calculated as the difference between the maximum fluorescence signal obtained in the experiment after agonist addition and the signal level seen at baseline before agonist, but after antagonist, addition (the absolute minimum level of fluorescence signal observed in the 10 seconds prior to agonist addition). […] Data are fit to an ideal curve utilizing the 4-parameter sigmoid curve-fit function in GraphPad Prism software (version 4, GraphPad Software, Inc., San Diego, Calif., USA) from which an EC50 value is obtained. […] For each antagonist, at least three concentrations are tested. Dose Ratio values are then used to make a standard Schild plot—log [antagonist concentration] plotted against log [DR−1], see Kenakin reference above for theoretical background and method. A linear regression curve-fit is then performed on these plotted points. […] If these conditions are not met, then the antagonist is rerun in a pA2 assay using different antagonist concentrations until the above conditions are met.

Row | SMILES | IC50 (hVR1 [1]) | Kb (hVR1 [2]) | inhibition at 1 µM (hVR1 [1])
1 | CC(NC(=O)[C@@H]1COc2cc(C(C)(C)C)ccc2O1)c1ccc2[nH]ncc2c1 (single isomer, unassigned) [Compound 6] | 103 nM |  | 
2 | CC(NC(=O)[C@@H]1COc2cc(C(F)(F)F)ccc2O1)c1ccc2[nH]ncc2c1 (stereo partly drawn) [Compound 14, (S)-6-Trifluoromethyl-2,3-dihydro-benzo[1,4]dioxine-2-carboxylic acid [1-(1H-indazol-5-yl)-ethyl]-amide] | 820 nM |  | 54%
3 | CC(NC(=O)C1CCc2nc(C(C)(C)C(F)(F)F)ccc2C1)c1ccc2[nH]ncc2c1 (stereo not drawn) [Compound 10, 2-(2,2,2-Trifluoro-1,1-dimethyl-ethyl)-5,6,7,8-tetrahydro-quinoline-6-carboxylic acid [1-(1H-indazol-5-yl)-ethyl]-amide] | 8 nM | 4.32 nM | 
4 | C[C@@H](NC(=O)[C@@H]1COc2cc(C(F)(F)F)ccc2O1)c1ccc2[nH]ncc2c1 [Compound 25, (S)-6-Trifluoromethyl-2,3-dihydro-benzo[1,4]dioxine-2-carboxylic acid 1[(R)-1-(1H-indazol-5-yl)-ethyl]-amide] | 150 nM | 188 nM | 
5 | CC(NC(=O)[C@H]1COc2cc(C(F)(F)F)ccc2O1)c1ccc2[nH]ncc2c1 (stereo partly drawn) [Compound 13, (R)-6-Trifluoromethyl-2,3-dihydro-benzo[1,4]dioxine-2-carboxylic acid [1-(1H-indazol-5-yl)-ethyl]-amide] | 64 nM | 37.4 nM | 
6 | O=C(Nc1cnc2c(c1)COCC2)[C@H]1COc2cc(C(F)(F)F)ccc2O1 [Compound 17, (R)-6-Trifluoromethyl-2,3-dihydro-benzo[1,4]dioxine-2-carboxylic acid (7,8-dihydro-5H-pyrano[4,3-b]pyridin-3-yl)-amide] | 140 nM |  | 

The remaining molecules from weak to strong by IC50 (hVR1 [1]), led by results:

Row | IC50 (hVR1 [1]) | Kb (hVR1 [2]) | inhibition at 1 µM (hVR1 [1]) | SMILES
7 | 310 nM |  |  | C[C@@H](NC(=O)[C@@H]1CCc2nc(C(C)(C)C(F)(F)F)ccc2C1)c1cnn2c1OCCC2 [Compound 20, (R)-2-(2,2,2-Trifluoro-1,1-dimethyl-ethyl)-5,6,7,8-tetrahydro-quinoline-6-carboxylic acid [(R)-1-(6,7-dihydro-5H-pyrazolo[5,1-b][1,3]oxazin-3-yl)-ethyl]-amide]
8 | 93 nM | 22.5 nM |  | C[C@@H](NC(=O)[C@H]1COc2cc(C(F)(F)F)ccc2O1)c1ccc2[nH]ncc2c1 [Compound 26, (R)-6-Trifluoromethyl-2,3-dihydro-benzo[1,4]dioxine-2-carboxylic acid [(R)-1-(1H-indazol-5-yl)-ethyl]-amide]
9 | 76 nM | 59.5 nM |  | C[C@@H](NC(=O)[C@H]1CCc2nc(C(C)(C)C(F)(F)F)ccc2C1)c1cnn2c1OCCC2 [Compound 22, (S)—N—((R)-1-(6,7-dihydro-5H-pyrazolo[5,1-b][1,3]oxazin-3-yl)ethyl)-2-(1,1,1-trifluoro-2-methylpropan-2-yl)-5,6,7,8-tetrahydroquinoline-6-carboxamide]
